Data from patent publication US6699869B1, “β-sheet mimetics and use thereof as inhibitors of biologically active peptides or proteins” (Myriad Genetics Inc., priority 1995, dated 2004).

Columns and labels:
[1] = target: T1, human Factor VIIa (FVIIa) and human tissue factor (TF) (Homo sapiens, UniProt P08709); experiment: Factor VII assay, hydrolysis of structure (11b) as proteolytic substrate; format: biochemical; conditions: for kcat/KM (Factor VII): human FVIIa and TF, pH 8.0 Tris buffer, 37° C.
T1 construct: human Factor VIIa (FVIIa)
Experimental: (§1) Both the thrombin and Factor VII assays of this experiment were carried out at 37° C. using a Hitachi UV/Vis spectrophotometer (model U-3000). Structure (11b) was dissolved in deionized water. The concentration was determined from the absorbance at 342 nm. […] Initial velocities were calculated from the initial linear portion of the reaction progress curve. Kinetic parameters were determined by unweighted nonlinear least-squares fitting of the simple Michaelis-Menten equation to the experimental data using GraFit (Version 3.0, Erithacus Software Limited).
For the Factor VII assay, pH 8.0 Tris buffer (0.05 M Tris, 5 mM CaCl2, 0.15 M NaCl, 0.1% TWEEN 20, 0.1% BSA) was used. 10 μl of 20 μM human Factor VIIa (FVIIa) and 22 μM of human tissue factor (TF) was brought to assay buffer to make 160 nM FVIIa and TF solutions, respectively. […] The initial 3 minutes reaction progress curves were recorded. […] The kcat/KM was, calculated from the slope and found to be 17,500 M^−1 s^−1.

bovine thrombin = target: T2, bovine thrombin (Bos taurus, UniProt P00735); experiment: thrombin assay, hydrolysis of structure (11b) as proteolytic substrate; format: biochemical; conditions: for kcat/KM (thrombin): bovine thrombin, 37° C.
T2 construct: bovine thrombin (from Sigma); purchased Sigma
Experimental: as §1
For the thrombin assay, experiments were performed in pH 8.4 Tris buffer (Tris, 0.05M; NaCl, 0.15M). 6.4 NIH units of bovine thrombin (from Sigma) were dissolved into 10 ml of the assay buffer to yield 10 nM thrombin solution. […] The first two minutes of the reactions were recorded for initial velocity determination.

control plasma = experiment: prothrombin time (PT) in control plasma; conditions: compared with PPACK
Experimental: Then 200 μl of prewarmed (at 37° C. for ˜10 minutes) thromboplastin with calcium (from Sigma) was rapidly added into the plasma sample.

aPTT and TT = experiment: pharmacodynamic study in rats (aPTT and TT of plasma samples); format: in vivo, rat; conditions: male Sprague Dawley rats, 4 mg/kg IV and 10 mg/kg PO
Experimental: Specifically, a pharmacodynamic and pharmacokinetic study of structure (20b) was conducted in male Sprague Dawley rats. […] Groups of rats (n=3 or 4) were sacrificed and exsanguinated at 0.25, 0.5, 1, 2, 4 and 8 hours following dosing. Efficacy parameters, aPTT and TT; were measured for each plasma sample.

T1 sequence (P08709 213-466 limits assumed): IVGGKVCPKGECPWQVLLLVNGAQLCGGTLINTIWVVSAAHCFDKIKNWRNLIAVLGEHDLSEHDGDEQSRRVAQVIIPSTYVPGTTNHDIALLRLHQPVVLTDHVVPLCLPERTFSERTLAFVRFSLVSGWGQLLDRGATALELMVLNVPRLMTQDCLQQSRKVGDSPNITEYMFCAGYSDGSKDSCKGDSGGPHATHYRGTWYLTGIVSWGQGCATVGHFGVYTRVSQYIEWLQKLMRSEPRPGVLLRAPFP
T1 sequence (P08709 61-212 partner limits assumed): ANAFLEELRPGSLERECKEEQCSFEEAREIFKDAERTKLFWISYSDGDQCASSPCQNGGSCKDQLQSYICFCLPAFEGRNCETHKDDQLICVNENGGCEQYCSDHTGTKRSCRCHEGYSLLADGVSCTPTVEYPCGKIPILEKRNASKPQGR
T1 sequence (P13726 33-251 partner limits assumed): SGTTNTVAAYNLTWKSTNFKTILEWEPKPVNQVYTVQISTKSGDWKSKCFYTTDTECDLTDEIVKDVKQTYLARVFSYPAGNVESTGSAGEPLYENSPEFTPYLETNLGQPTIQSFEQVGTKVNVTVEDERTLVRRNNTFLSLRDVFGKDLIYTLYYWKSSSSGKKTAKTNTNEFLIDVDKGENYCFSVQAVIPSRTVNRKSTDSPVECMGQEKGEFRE

| kcat/KM (Factor VII) [1] | kcat/KM (thrombin) (bovine thrombin) [M⁻¹ s⁻¹] | SMILES | further results |
| --- | --- | --- | --- |
| 12700 M⁻¹ s⁻¹ | 2.2e+07 | NC(N)=NCCCC(NC(=O)C1CCCN1C(=O)C(N)Cc1ccccc1)C(=O)Nc1ccc([N+](=O)[O-])cc1 (centres unmarked) [(D)FPR-PNA, reference compound] |  |
| 17,500 M^−1 s^−1 | 1.67e+07 | N=C(N)NCCC[C@H](NC(=O)[C@@H]1CCN2CC[C@@](N)(Cc3ccccc3)C(=O)N12)C(=O)Nc1ccc([N+](=O)[O-])cc1 [Structure (11b)] | Activity compared to the control (D)FPR-PNA, Factor VII ([1]; ratio of kcat/KM to control): 1.38; Activity compared to the control (D)FPR-PNA, thrombin (bovine thrombin; ratio of kcat/KM to control): 0.76 |
|  |  | N=C(N)NCCC[C@H](NC(=O)[C@@H]1CCN2CC[C@@](N)(Cc3ccccc3)C(=O)N12)C(=O)CCl [Structure (13b)] | time required to form clot (PT), in words (control plasma): comparable with PPACK |
|  |  | N=C(N)NCCC[C@H](NC(=O)[C@@H]1CCN2CC[C@@](N)(Cc3ccccc3)C(=O)N12)C(=O)c1nc2ccccc2s1 [Structure (20b)] | in vivo efficacy (aPTT and TT) (aPTT and TT): in vivo efficacy |
